The numbers were not newly measured in patent US7785629B2, “Bicalutamide-adsorbates, process for preparing same, and pharmaceutical compositions thereof” (Helm AG, priority 2005, dated 2010), which cites them from elsewhere.

The conditions of this series: water and aqueous buffers at various pH values.

The structures appear in SMILES notation.

Take `CC(O)(CS(=O)(=O)c1ccc(F)cc1)C(=O)Nc1ccc(C#N)c(C(F)(F)F)c1` (stereo not shown) [Bicalutamide, N-[4′-cyano-3′-trifluoromethyl-phenyl]-3-[4″-fluorophenylsulfonyl]-2-hydroxy-2-methyl-propionamide]: the Solubility result is on record as “sparingly soluble”.
